The values below are quoted from earlier work in patent US20260183298A1, “VIRAL PROPHYLAXIS TREATMENT METHODS AND PRE-EXPOSURE PROPHYLAXIS KITS” (priority 2022, published 2026).

The term bioavailability denotes dose-corrected exposure relative to a reference, in per cent.

For series [1] the following is noted: in vivo.
In series [2] the test system is HSV-1, HSV-2, HSV-8 (Kaposi's Sarcoma Virus), Vaccinia and Cowpox viruses.
Series [3] deals with EHV. The following applies: about 75% of the horses infected with EHV; all horses treated with valacyclovir.
Series [4] has as its system cytochrome p450.

Consider `CC(=O)OCC(CCn1cnc2cnc(N)nc21)COC(C)=O` [Famciclovir, famciclovir], for which the “time to clear through the kidneys” value in series [1] is reported as “less than 24 hours”.

On to `Cc1cn([C@H]2C[C@H](O)[C@]3(CO)C[C@H]23)c(=O)[nH]c1=O` [N-MCT, N-methanocarbathymidine], for which, in series [2], the antiviral activity entry was “inhibits”. Besides, in series [2] (than the antiviral drugs acyclovir, ganciclovir and cidofovir), the “potency relative to reference antivirals” value is “equally or more potent”.

Consider `CC(C)[C@H](N)C(=O)OCCOCn1cnc2c(=O)[nH]c(N)nc21` [Valacyclovir, valacyclovir], for which the “progression to severe neurological disease” value in series [3] was “none progressed to severe neurological disease”. The Renal clearance (following a single 1 g dose) is on record as 255 mL/min. Further, for the setting “in vivo”, the “Mean Cmax” value was 0.83 to 5.65 µg/mL. Also, the bioavailability (overall) was 54.5%. In addition, the “metabolism by cytochrome p450” value in series [4] was “not metabolized by cytochrome p450”. In series [1], the “time to clear through the kidneys” value is “less than 24 hours”.
